Laboratory results from patent US20130202594A1, “ALK1 Antagonists and Their Uses in Treating Renal Cell Carcinoma” (priority 2012, published 2013).
“Also recorded” adds a separate entry of the source.

Legend:
[1] = system: SMAD 1/5/8 phosphorylation in HUVEC cells; assay: rhBMP-9 induced SMAD 1/5/8 phosphorylation in HUVEC cells; type: cell-based, human; details: 250 ng/ml, rhBMP-9 50 ng/ml
Experimental: Activation of SMAD phosphorylation is commonly used to assay activation of upstream activin receptors. ALK1 is known to modulate phosphorylation of SMAD proteins 1,5 and 8 upon activation by its ligand. Here, we added rhBMP-9 (50 ng/ml) to initiate SMAD phosphorylation in HUVEC cells, a human endothelial cell line which innately expresses ALK1 receptor, over a timecourse of 30 minutes. Phosphorylation of SMAD 1/5/8 was seen 5 minutes after treatment of cells with ligand and phosphorylation was maintained for the entirety of the 30 minute period.

[2] = molecular target: T1, BMP2 (Homo sapiens, UniProt P12643); assay: Biacore binding to hALK1-Fc: BMP2
T1 sequence (P12643 283-396): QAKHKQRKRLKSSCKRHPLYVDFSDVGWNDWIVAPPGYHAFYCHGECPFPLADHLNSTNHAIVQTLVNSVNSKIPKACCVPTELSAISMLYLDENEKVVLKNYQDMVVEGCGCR
Experimental: (§1) ALK1 is a type 1 receptor for ligands of the TGFβ family. Multiple members of the TGFβ family were tested for binding to a human ALK1-Fc fusion protein, using a Biacore™ system.

[3] = system: MDA-MB-231 cell line; assay: MDA-MB-231-Luc orthotopic breast cancer xenograft; type: in vivo, mouse; details: similar experiment; dose levels as low as 3 mg/kg
From the text: The MDA-MB-231 breast cancer cell line (derived from ER− cells) was stably transfected with the luciferase gene to allow for the in vivo detection of tumor growth and potential metastasis. In this study, 1×10^6 MDA-MB-231-Luc cells were implanted orthotopically in the mammary fat pad of athymic nude mice (Harlan). Tumor progression was followed by bioluminescent detection using an IVIS Spectrum imaging system (Caliper Life Sciences). An increase in the luminescence (number of photons detected) corresponds to an increase in tumor burden.
Thirty female nude mice were injected with 1×10^6 tumor cells into the mammary fat pad. Three days after tumor implantation the mice were treated with either vehicle control or mALK1-Fc (30 mg/kg) twice per week by subcutaneous (SC) injection. […] This may be expected of an antiangiogenic compound in that tumors may be able to survive to a certain size before requiring new blood vessel formation to support continued growth.

[4] = system: endothelial cells; assay: Endothelial cell tube forming assay on Matrigel with ECGS; type: cell-based; details: for tube formation compared with endostatin: endostatin 100 ng/ml
From the text: In order to evaluate the angiogenic effect of ALK1-Fc in an in vitro system, we assayed the effectiveness of the compound in reducing tube formation of endothelial cells on a Matrigel substrate. This technique is commonly used to assess neovascularization, giving both rapid and highly reproducible results. Endothelial Cell Growth Supplement (ECGS) is used to induce the formation of microvessels from endothelial cells on Matrigel, and the efficacy of anti-angiogenic compounds are then gauged as a reduction of cord formation in the presence of both the drug and ECGS over an 18 hour timecourse. As expected, addition of ECGS (200 ng/ml) induced significant cord formation, as compared to the negative control (no treatment added), which indicates basal levels of endothelial cell cord formation produced on Matrigel substrate (FIG. 5).

[5] = Size exclusion chromatography of ALK1-Fc preparations (dimers vs aggregates); type: physicochemical
Experimental: The R&D Systems material contains approximately 13% aggregated protein, as shown by the peaks on the left hand side of the graph, as well as some lower molecular weight species. The material of SEQ ID NO:3 is greater than 99% composed of dimers of the appropriate molecular size.
In one approach, a number of different cell culture media were tested. […] The resulting material is comprised of greater than 99% dimers. […] Having identified aggregate formation as a significant problem in ALK1-Fc production, it is expected that other approaches may be developed, including approaches that involve additional purification steps (although such approaches may result in lower yield of purified protein).

[6] = molecular target: T2, GDF7 (Homo sapiens, UniProt Q7Z4P5); assay: Biacore binding to hALK1-Fc: GDF7
T2 sequence (Q7Z4P5 322-450): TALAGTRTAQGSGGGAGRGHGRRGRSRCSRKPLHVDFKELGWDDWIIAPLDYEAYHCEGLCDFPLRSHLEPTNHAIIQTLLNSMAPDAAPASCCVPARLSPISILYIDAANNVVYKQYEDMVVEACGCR
Experimental: as §1

[7] = system: 786-0 cells; assay: 786-0 human RCC tumor xenograft model; type: in vivo, mouse; details: sunitinib 53.6 mg/kg gavage 6 of 7 days; ALK1-Fc 10 mg/kg IP 3 times per week
Experimental: 786-0 cells, a von Hippel Lindau (VHL)-deficient human renal cell carcinoma (RCC) cell line (see Iliopoulos et al., Nature Medicine 1995; 1:822-6), was obtained from the American Type Culture Collection, and cultured in RPMI 1640 medium (Cellgro). Media was supplemented with 2 mmol/L L-glutamine, 10% FCS, and 1% streptomycin (50 μg/mL), and cells were cultured at 37° C. with 5% CO2. 786-0 cells were harvested from subconfluent cultures by a brief exposure to 0.25% trypsin and 0.02% EDTA. Trypsinization was stopped with medium containing 10% fetal bovine serum and the cells were washed once in serum-free medium and resuspended in PBS. Only suspensions consisting of single cells with >90% viability were used for the injections.
To establish human RCC xenografts, 786-0 tumor cells were injected subcutaneously (1×10^7 cells) into the flanks of 6- to 8-week-old female athymic nude/beige mice (Charles River Laboratories) that were of 20 g average body weight. Tumors developed in >80% of the mice and were usually visible within a few days of implantation. Mice were treated with vehicle plus Fc, sunitinib plus Fc, vehicle plus ALK-Fc, or sunitinib plus ALK-Fc when the tumors had grown to a diameter of 12 mm. Sunitinib (53.6 mg/kg; Pfizer) was administered 6 of 7 days per week by gavage beginning. […] Tumors were measured every two days while mice were on treatment.

[8] = molecular target: T3, BMP10 (Homo sapiens, UniProt O95393); assay: Biacore binding to hALK1-Fc: BMP10
T3 sequence (O95393 317-424): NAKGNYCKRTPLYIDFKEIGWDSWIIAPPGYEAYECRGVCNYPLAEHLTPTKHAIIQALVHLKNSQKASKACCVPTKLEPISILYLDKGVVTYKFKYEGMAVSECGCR
Experimental: as §1

[9] = molecular target: T4, BMP4 (Homo sapiens, UniProt P12644); assay: Biacore binding to hALK1-Fc: BMP4
T4 sequence (P12644 293-408): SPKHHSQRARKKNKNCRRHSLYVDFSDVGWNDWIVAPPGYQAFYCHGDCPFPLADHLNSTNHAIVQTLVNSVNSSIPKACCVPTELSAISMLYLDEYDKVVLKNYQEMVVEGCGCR
Experimental: as §1

hALK1-Fc: extracellular domain of human ALK1 (amino acids 22-120) fused to a human IgG1 Fc with a minimal linker (SEQ ID NO:3/14)
SMAD 1/5/8 phosphorylation [1]: SMAD 1/5/8 phosphorylation was reduced | binding to hALK1-Fc [2]: failed to show substantial binding; also recorded: only limited binding | tumor progression (bioluminescence) [3]: similar, if slightly lesser, effects | cord formation ([4]; 100 ng/ml, ECGS 200 ng/ml, 18 hour): cord formation was visibly reduced | tube formation compared with endostatin ([4]; ECGS): more potent anti-angiogenic activity than the negative control endostatin | tube formation compared with endostatin ([4]; ECGS, listed as ACE): to a greater degree than the positive control, Endostatin | neovascularization (quantification of vessel length) ([4]; every concentration, ECGS): reduced neovascularization to basal levels | dimers [5]: greater than 99% | Kd [6]: ~50 nM | tumor growth [7]: trended toward inhibiting tumor growth as a single agent | Kd [8]: ~3 nM | binding to hALK1-Fc [9]: failed to show substantial binding; also recorded: only limited binding
